The term pIC50 denotes the negative decadic logarithm of the IC50, by convention in mol/L.

In ChEMBL document CHEMBL1777691, “Structure based design of novel inhibitors for histidinol dehydrogenase from Geotrichum candidum” (Bioorg Med Chem Lett, 2010) one finds IC50 data, which are given here for eight compounds.

pIC50: −log10 of the molar value.

This experiment in a line: Inhibition of Geotrichum candidum Histidinol dehydrogenase.
Compound `CCOC(=O)NC(Cc1cn(C)cn1)C(=O)OC` (stereo not drawn) had a pIC50 of 4.53. For `COC(=O)CCc1c[nH]cn1` the value was 5.28; for `O=C1NCCc2cncn21`, 4.62; for `O=C(O)CCc1c[nH]cn1`, 5.50. For `COC(=O)NC(Cc1cncn1C)C(=O)OC` (stereo not drawn) the value was 4.97; for `O=C(O)C1Cc2cncn2C(=O)N1` (stereo not drawn), 5.45; for `O=C(O)C1Cc2c(I)nc(I)n2C(=O)N1` (stereo not drawn), 4.23. Consider `COC(=O)C1Cc2c(Cl)ncn2C(=O)N1` (stereo not drawn), for which the pIC50 is 3.91.
